Here are results for 70 compounds from PubChem BioAssay AID977614 (Broad Institute, 2014).

Calls of active or inactive are those of the source.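 How the source made its calls: active means parasite count per well reduced by over 3 SD from the mean, with host cell number above 80% of untreated; inactive means the rest.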 Bounds are passed on as bounds.

The test system of this assay is L. donovani amastigotes in THP-1 macrophages, DAPI imaging, 72 h. The assay can be described thus: L. donovani intracellular amastigote growth inhibitors, imaging, THP-1 host macrophages, single concentration (AID 977614).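 Further: signal is the parasite per host cell ratio from DAPI stained kinetoplasts and nuclei.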
As to `COCC(=O)N(C[C@H]1[C@H](c2ccccc2)[C@@H](CO)N1C(=O)NC(C)C)C(C)C`, the AC50 was > 10 µM (inactive). Under `C[C@H]1CN([C@@H](C)CO)C(=O)CCCn2cc(nn2)CO[C@H]1CN(C)C(=O)Nc1ccc2c(c1)OCO2` stands > 10 µM (inactive). As for `O=S(=O)(NC[C@@H]1[C@H](c2ccccc2)[C@@H](CO)N1CC1CC1)c1ccccc1`, the AC50 was > 10 µM (inactive).

Regarding `C[C@@H]1CN([C@H](C)CO)C(=O)CCCn2cc(nn2)CO[C@@H]1CN(C)C(=O)NC1CCCCC1`, the AC50 was > 10 µM (inactive). As for `CCC(=O)N1C[C@@H]2[C@H](c3ccccc31)[C@H](CO)N2Cc1ccc(F)cc1`, the figure is > 10 µM (inactive); as for `C/C=C/c1ccc([C@H]2[C@H](CO)N[C@H]2CN(CC(C)C)C(=O)c2ccccn2)cc1`, > 10 µM (inactive). For the compound `Cc1noc(C)c1S(=O)(=O)N(C)C[C@@H]1OCc2cn(nn2)CCCC(=O)N([C@@H](C)CO)C[C@@H]1C`, the AC50 was > 10 µM (inactive). As for `COCC(=O)N(C)C[C@H]1[C@H](c2ccccc2)[C@H](CO)N1C(=O)Cc1ccncc1`, the figure is > 10 µM (inactive); as for `CC(C)N(C[C@@H]1[C@@H](c2ccccc2)[C@H](CO)N1S(C)(=O)=O)C(=O)CN(C)C`, > 10 µM (inactive).

Take `OC[C@@H]1[C@H](c2ccc(-c3ccc(F)cc3)cc2)[C@H](CNC2CCCC2)N1CCC(F)(F)F`: the AC50 is > 10 µM (inactive). As for `CCc1csc(N2[C@H](CO)[C@H](c3ccccc3)[C@@H]2CN(C)C(=O)C2CCC2)n1`, the figure is > 10 µM (inactive); as for `CC(=O)N1[C@H](CO)[C@H](c2ccccc2)[C@H]1CNC(=O)CN1CCOCC1`, > 10 µM (inactive). As for `C/C=C/c1ccc([C@H]2[C@@H](CO)N(C(=O)C3CC3)[C@@H]2CNC(=O)NC(C)C)cc1`, the figure is > 10 µM (inactive); as for `COc1ccc(NC(=O)N2C[C@H]3[C@@H](c4ccccc42)[C@@H](CO)N3Cc2ccccn2)cc1`, > 10 µM (inactive). Under `CCN(C[C@H]1[C@H](c2ccc(-c3cccnc3)cc2)[C@@H](CO)N1C(C)=O)C(C)=O` stands > 10 µM (inactive); under `C[C@@H]1CN([C@H](C)CO)C(=O)CCCn2nncc2CO[C@@H]1CN(C)S(=O)(=O)c1cn(C)cn1`, > 10 µM (inactive). Consider `C[C@H](CO)N1C[C@H](C)[C@H](CN(C)S(=O)(=O)c2ccc3c(c2)OCCCO3)OCc2cnnn2CCCC1=O`, for which the AC50 is > 10 µM (inactive). Under `CCN(C[C@H]1N[C@H](CO)[C@H]1c1ccccc1)C(=O)c1ccncc1` stands > 10 µM (inactive).

As to `Cc1noc(C)c1NC(=O)N(C)C[C@@H]1OCc2cnnn2CCCC(=O)N([C@@H](C)CO)C[C@@H]1C`, the AC50 is > 10 µM (inactive). On to `C[C@@H]1CN([C@H](C)CO)C(=O)CCCn2nncc2CO[C@H]1CN(C)C(=O)c1cc(-c2ccccc2)on1`, for which the AC50 was > 10 µM (inactive).

Regarding `C[C@H](CO)N1C[C@H](C)[C@H](CN(C)CC2CCCCC2)OCc2cnnn2CCCC1=O`, the AC50 is > 10 µM (inactive). Under `O=C(c1ccc2c(c1)OCO2)N1C[C@@H]2[C@H](c3ccccc31)[C@@H](CO)N2Cc1cccnc1` stands > 10 µM (inactive).

Take `O=C(c1ccccc1F)N1C[C@@H]2[C@H](c3ccccc31)[C@H](CO)N2Cc1ccc2c(c1)OCO2`: the AC50 was > 10 µM (inactive). As for `CCC(=O)N1[C@H](CO)[C@H]2c3ccccc3N(S(=O)(=O)c3ccc(F)cc3)C[C@H]21`, the AC50 was > 10 µM (inactive). In the case of `COCC(=O)N1C[C@@H]2[C@H](c3ccccc31)[C@H](CO)N2Cc1cc(F)ccc1F`, the AC50 was > 10 µM (inactive). As for `O=C(CC(F)(F)F)N1C[C@@H]2[C@H](c3ccccc31)[C@@H](CO)N2Cc1cccnc1`, the figure is > 10 µM (inactive); as for `CN1C[C@@H]2[C@H](c3ccccc31)[C@@H](CO)N2Cc1ccccc1Cl`, > 10 µM (inactive). As for `C[C@H]1CN([C@@H](C)CO)C(=O)CCCn2nncc2CO[C@H]1CN(C)Cc1ccccc1C(=O)O`, the AC50 was > 10 µM (inactive). Under `CCC(=O)N1C[C@@H]2[C@H](c3ccccc31)[C@H](CO)N2C(=O)CC1CC1` stands > 10 µM (inactive). Under `CCC(=O)N1[C@H](CO)[C@@H]2c3ccccc3N(C(=O)Nc3ccc(Cl)cc3)C[C@@H]21` stands > 10 µM (inactive); under `CCS(=O)(=O)N(C)C[C@H]1[C@@H](c2ccccc2)[C@@H](CO)N1C(=O)CN(C)C`, > 10 µM (inactive); under `CC(=O)N1[C@@H](CO)[C@@H]2c3ccccc3N(S(=O)(=O)c3ccccc3C)C[C@@H]21`, > 10 µM (inactive). Turning to `O=S(=O)(c1ccccc1)N1[C@H](CO)[C@@H]2c3ccccc3NC[C@@H]21`, the AC50 was > 10 µM (inactive). Take `CC(=O)N1[C@H](CO)[C@H](c2ccc(-c3ccccc3F)cc2)[C@@H]1CNC(C)C`: the AC50 is > 10 µM (inactive). Consider `CC(=O)N1[C@H](CO)[C@H](c2ccc(C3=CCCCC3)cc2)[C@@H]1CNC(=O)CN(C)C`, for which the AC50 was > 10 µM (inactive).

As to `COc1ccccc1NC(=O)N1C[C@H]2[C@@H](c3ccccc31)[C@@H](CO)N2C(=O)C1CCCC1`, the AC50 is > 10 µM (inactive). Consider `O=C(CC1CC1)N1[C@@H]2CN(S(=O)(=O)c3ccccc3F)c3ccccc3[C@@H]2[C@@H]1CO`, for which the AC50 was > 10 µM (inactive). Under `CN(C[C@@H]1[C@@H](c2ccccc2)[C@@H](CO)N1Cc1ccccn1)S(C)(=O)=O` stands > 10 µM (inactive); under `CN(C[C@H]1N[C@@H](CO)[C@@H]1c1ccc(C2=CCCC2)cc1)C(=O)c1cccc(F)c1`, > 10 µM (inactive).

As to `C[C@@H]1CN([C@@H](C)CO)C(=O)CCCn2nncc2CO[C@H]1CN(C)Cc1ccccc1C(=O)O`, the AC50 was > 10 µM (inactive). On to `CN1[C@@H]2CN(C(=O)Nc3cc(F)ccc3F)c3ccccc3[C@@H]2[C@@H]1CO`, for which the AC50 is > 10 µM (inactive). Under `COc1ccccc1C(=O)N1C[C@@H]2[C@H](c3ccccc31)[C@H](CO)N2CC1CCCC1` stands > 10 µM (inactive). As for `O=C(Cc1ccccc1)N1C[C@@H]2[C@H](c3ccccc31)[C@H](CO)N2S(=O)(=O)c1ccccc1`, the figure is > 10 µM (inactive). `O=C(Cc1ccccc1)N1C[C@H]2[C@@H](c3ccccc31)[C@@H](CO)N2S(=O)(=O)c1ccccc1`: the AC50 is > 10 µM (inactive). With `C[C@H]1CN([C@@H](C)CO)C(=O)CCCn2nncc2CO[C@@H]1CN(C)C(=O)c1ccc(N2CCN(C)CC2)cc1`, the AC50 was > 10 µM (inactive).

For `CCN(C[C@@H]1N[C@H](CO)[C@H]1c1ccccc1)C(=O)c1ccncc1`, the AC50 is > 10 µM (inactive).

For `COc1ccc(CN(C)C[C@H]2OCc3cnnn3CCCC(=O)N([C@H](C)CO)C[C@@H]2C)cc1`, the AC50 is > 10 µM (inactive). Under `C[C@@H]1CN([C@H](C)CO)C(=O)CCCn2nncc2CO[C@H]1CN(C)S(=O)(=O)c1ccc2c(c1)OCCCO2` stands > 10 µM (inactive); under `C[C@H]1CN([C@@H](C)CO)C(=O)CCCn2nncc2CO[C@@H]1CN(C)C(=O)Oc1cccc2ccccc12`, > 10 µM (inactive); under `C[C@H]1CN([C@@H](C)CO)C(=O)CCCn2cc(nn2)CO[C@@H]1CN(C)C(=O)Nc1ccc2c(c1)OCO2`, > 10 µM (inactive). Consider `COc1ccc(CN2[C@@H](CO)[C@@H]3c4ccccc4NC[C@@H]32)cc1`, for which the AC50 is > 10 µM (inactive).

Consider `CC(=O)NC[C@H]1[C@@H](c2ccc(-c3cccnc3)cc2)[C@@H](CO)N1C(=O)CC1CC1`, for which the AC50 is > 10 µM (inactive). Under `O=C(c1ccncc1)N1C[C@@H]2[C@H](c3ccccc31)[C@H](CO)N2C(=O)CN1CCOCC1` stands > 10 µM (inactive); under `O=C(CC(F)(F)F)N1C[C@H]2[C@@H](c3ccccc31)[C@H](CO)N2C(=O)C1CCCCC1`, > 10 µM (inactive); under `C[C@@H]1CN([C@@H](C)CO)C(=O)CCCn2cc(nn2)CO[C@H]1CN(C)S(=O)(=O)c1cccc(C#N)c1`, > 10 µM (inactive).

On to `CCC(=O)N1C[C@H]2[C@@H](c3ccccc31)[C@@H](CO)N2C(=O)CC1CC1`, for which the AC50 was > 10 µM (inactive).

Regarding `C[C@H](CO)N1C[C@H](C)[C@H](CN(C)C(=O)CCC(F)(F)F)OCc2cnnn2CCCC1=O`, the AC50 is > 10 µM (inactive). As for `CC(=O)N1[C@@H](CO)[C@@H](c2ccccc2)[C@@H]1CN(CC(C)C)C(=O)c1ccccn1`, the figure is > 10 µM (inactive); as for `CN(C[C@H]1N[C@H](CO)[C@@H]1c1ccc(-c2cccnc2)cc1)C(=O)NC1CCCC1`, > 10 µM (inactive).

Regarding `C/C=C/c1ccc([C@@H]2[C@@H](CN(C)C(=O)CC3CC3)N(C(=O)C3CC3)[C@H]2CO)cc1`, the AC50 is > 10 µM (inactive).

In the case of `CN1C[C@@H]2[C@H](c3ccccc31)[C@@H](CO)N2C(=O)C1CCOCC1`, the AC50 is > 10 µM (inactive). Under `O=C(Cc1ccccn1)N1[C@H](CO)[C@H]2c3ccccc3NC[C@H]21` stands > 10 µM (inactive); under `CNC[C@@H]1OCc2cnnn2CCCC(=O)N([C@H](C)CO)C[C@@H]1C`, > 10 µM (inactive); under `COCCNC[C@@H]1[C@H](c2ccccc2)[C@H](CO)N1c1nc(C)c(C)s1`, > 10 µM (inactive).

For the compound `C/C=C/c1ccc([C@H]2[C@@H](CO)N[C@@H]2CN(Cc2cccnc2)C(=O)C2CC2)cc1`, the AC50 was > 10 µM (inactive). For `CCN(C[C@H]1[C@@H](c2ccccc2)[C@@H](CO)N1C(=O)COC)S(C)(=O)=O`, the AC50 was > 10 µM (inactive).

In the case of `C[C@@H]1CN([C@H](C)CO)C(=O)CCCn2nncc2CO[C@H]1CN(C)C(=O)c1ccc(N2CCN(C)CC2)cc1`, the AC50 is > 10 µM (inactive). As for `CC(=O)NC[C@@H]1[C@@H](c2ccc(-c3cccnc3)cc2)[C@@H](CO)N1C(=O)CC1CC1`, the figure is > 10 µM (inactive); as for `CN1C[C@@H]2[C@H](c3ccccc31)[C@@H](CO)N2S(=O)(=O)c1ccccc1`, > 10 µM (inactive). On to `COc1cccc(NC(=O)N2[C@H](CO)[C@@H](c3ccccc3)[C@H]2CNCC(C)C)c1`, for which the AC50 is > 10 µM (inactive).
